Measured values as given in patent publication US11970497B2, “Tricyclic AKR1C3 dependent KARS inhibitors” (Novartis AG, priority 2019, dated 2024).

Tests used:
[1] = test system: H460 (NRF2 pathway mutant cell line with high AKR1C3 expression); assay: In vitro cell proliferation assay (CellTiter-Glo), H460; type: cell-based; conditions: Homo sapiens, NCI-H460, 72 h; H460 cells, 3 days, CellTiter-Glo, top concentration 10 μM; read-out: H460 Qualified absolute AC50
Source text: (§1) Cellular Proliferation Assay to Assess Compounds Activity in H460 (NRF2 Pathway Mutant Cell Line with High AKR1C3 Expression) and Hara (NRF2 Pathway Wild Type Cell Line with Low AKR1C3 Expression).
(§2) The cell lines A549 and H460 are NRF2 pathway mutant and specifically contain genetic alterations in KEAP1 (A549: G333C, H460: D236H) (Singh A. et al., 2006 PLoS Medicine 3(10) e420). In these cell lines the NRF2 pathway is constitutively active and these cells express high levels of NRF2 protein and NRF2 pathway target gene AKR1C3. […] They have low AKR1C3 expression.
(§3) In Vitro Cell Proliferation Assay
(§4) Day 1, for H460 800 cells/well or 40 μL of 2×10^4 cells/mL and for Hara 2000 cells/well or 40 μL of 5×10^4 cells/mL medium (RPMI-1640 supplemented with 10% fetal bovine serum and 1% penicillin/streptomycin) were seeded into 384-well tissue culture plates. Day 2, compounds were serially diluted 1:5 to generate 8 point dose response curves and added to cells for a final top concentration of 10 μM. DMSO (1%) control and MG132 (30 μM) controls are added in columns 23 and 24 respectively on each plate for positive and negative control. After incubation for 3 days at 37° C./5% CO2, 30 μl of CellTiter-Glo reagent (Promega) was added and the plates were incubated for 10 min on plate shaker. The amount of luminescence was determined using a Perkin Elmer Envision plate reader. CellTiter-Glo luminescence values of cells treated with DMSO and MG132 controls were used to normalize the data and calculate percentage activity and AC50s of compounds using the Helios Software suite.

[2] = test system: Hara (NRF2 pathway wild type cell line with low AKR1C3 expression); assay: In vitro cell proliferation assay (CellTiter-Glo), Hara; type: cell-based; conditions: 72 h; Hara cells, 3 days, CellTiter-Glo, top concentration 10 μM; read-out: HARA Qualified absolute AC50
Source text: as §1, §2, §3, §4

Row | Structure (SMILES) | AC50 [1] | AC50 [2]
1 | COc1cc(F)ccc1CNC(=O)N1CCC2(CC1)CC(O)c1cc(F)ccc1N2 (racemic) [Example 168, 6′-fluoro-N-(4-fluoro-2-methoxybenzyl)-4′-hydroxy-3′,4′-dihydro-1′H-spiro[piperidine-4,2′-quinoline]-1-carboxamide] | 41 nM | 49 nM
2 | CN1c2ccc(F)cc2[C@@H](O)CC12CCN(C(=O)NCc1ccc(F)cc1)CC2 (single isomer, unassigned) [Example 151b] | 3400 nM | 6070 nM
3 | O=C(NCc1ccc(F)cc1O)N1CCC2(CC1)C[C@H](O)c1cc(F)ccc1N2 (single isomer, unassigned) [Example 154b] | 464 nM | 749 nM
4 | COc1cc(F)ccc1CNC(=O)N1CCC2(CC1)CC(=O)c1cc(F)ccc1N2C [Example 2, 6′-fluoro-N-(4-fluoro-2-methoxybenzyl)-1′-methyl-4′-oxo-3′,4′-dihydro-1′H-spiro[piperidine-4,2′-quinoline]-1-carboxamide] | 5 nM | > 10000 nM
5 | CN1c2ccc(F)cc2C(=O)CC12CCN(C(=O)NCc1ccc(F)c(OCCO)c1)CC2 [Example 3, 6′-fluoro-N-(4-fluoro-3-(2-hydroxyethoxy)benzyl)-1′-methyl-4′-oxo-3′,4′-dihydro-1′H-spiro[piperidine-4,2′-quinoline]-1-carboxamide] | 5 nM | 1760 nM
6 | CN1c2ccc(F)cc2C(=O)CC12CCN(C(=O)NCc1ccc(F)cc1F)CC2 [Example 5, N-(2,4-difluorobenzyl)-6′-fluoro-1′-methyl-4′-oxo-3′,4′-dihydro-1′H-spiro[piperidine-4,2′-quinoline]-1-carboxamide] | 8 nM | > 10000 nM
7 | CCN1c2ccc(F)cc2C(=O)CC12CCN(C(=O)NCc1ccc(F)cc1)CC2 [Example 6, 1′-ethyl-6′-fluoro-N-(4-fluorobenzyl)-4′-oxo-3′,4′-dihydro-1′H-spiro[piperidine-4,2′-quinoline]-1-carboxamide] | 9 nM | > 10000 nM
8 | COc1cc(CNC(=O)N2CCC3(CC2)CC(=O)c2cc(F)ccc2N3C)ccc1F [Example 8, 6′-fluoro-N-(4-fluoro-3-methoxybenzyl)-1′-methyl-4′-oxo-3′,4′-dihydro-1′H-spiro[piperidine-4,2′-quinoline]-1-carboxamide] | 15 nM | > 10000 nM
9 | Cc1occc1CNC(=O)N1CCC2(CC1)CC(=O)c1cc(F)cc(F)c1N2 [Example 10, 6′,8′-difluoro-N-((2-methylfuran-3-yl)methyl)-4′-oxo-3′,4′-dihydro-1′H-spiro[piperidine-4,2′-quinoline]-1-carboxamide] | 21 nM | 5410 nM
10 | NC(=O)c1cc(CNC(=O)N2CCC3(CC2)CC(=O)c2cc(F)cc(F)c2N3)ccc1F [Example 11, N-(3-carbamoyl-4-fluorobenzyl)-6′,8′-difluoro-4′-oxo-3′,4′-dihydro-1′H-spiro[piperidine-4,2′-quinoline]-1-carboxamide] | 23 nM | > 10000 nM
11 | [2H]C([2H])(NC(=O)N1CCC2(CC1)CC(=O)c1cc(F)ccc1N2)c1ccc(F)cc1 [Example 12, 6′-fluoro-N-((4-fluorophenyl)methyl-d2)-4′-oxo-3′,4′-dihydro-1′H-spiro[piperidine-4,2′-quinoline]-1-carboxamide] | 24 nM | > 10000 nM
12 | CCN1c2ccc(F)cc2C(=O)CC12CCN(C(=O)NCc1ccc(F)c(C(N)=O)c1)CC2 [Example 13, N-(3-carbamoyl-4-fluorobenzyl)-1′-ethyl-6′-fluoro-4′-oxo-3′,4′-dihydro-1′H-spiro[piperidine-4,2′-quinoline]-1-carboxamide] | 25 nM | 7950 nM
13 | COCCN1c2ccc(F)cc2C(=O)CC12CCN(C(=O)NCc1ccc(F)cc1)CC2 [Example 14, 6′-fluoro-N-(4-fluorobenzyl)-1′-(2-methoxyethyl)-4′-oxo-3′,4′-dihydro-1′H-spiro[piperidine-4,2′-quinoline]-1-carboxamide] | 29 nM | 795 nM
14 | O=C1CC2(CCN(C(=O)NCc3ccc(F)c(-c4cnco4)c3)CC2)Nc2ccc(F)cc21 [Example 15, 6′-fluoro-N-(4-fluoro-3-(oxazol-5-yl)benzyl)-4′-oxo-3′,4′-dihydro-1′H-spiro[piperidine-4,2′-quinoline]-1-carboxamide] | 29 nM | 9440 nM
15 | O=C1CC2(CCN(C(=O)NCc3ccc(F)cc3F)CC2)Nc2ccc(F)cc21 [Example 16, N-(2,4-difluorobenzyl)-6′-fluoro-4′-oxo-3′,4′-dihydro-1′H-spiro[piperidine-4,2′-quinoline]-1-carboxamide] | 29 nM | > 10000 nM
16 | CN1c2ccc(F)cc2C(=O)CC12CCN(C(=O)NCc1cc(NCCO)c(F)cc1F)CC2 [Example 17, N-(2,4-difluoro-5-((2-hydroxyethyl)amino)benzyl)-6′-fluoro-1′-methyl-4′-oxo-3′,4′-dihydro-1′H-spiro[piperidine-4,2′-quinoline]-1-carboxamide] | 30 nM | > 10000 nM
17 | CCN1c2ccc(F)cc2C(=O)CC12CCN(C(=O)NCc1cc(NCCO)c(F)cc1F)CC2 [Example 18, N-(2,4-difluoro-5-((2-hydroxyethyl)amino)benzyl)-1′-ethyl-6′-fluoro-4′-oxo-3′,4′-dihydro-1′H-spiro[piperidine-4,2′-quinoline]-1-carboxamide] | 30 nM | 4190 nM
18 | O=C1CC2(CCN(C(=O)NCc3ccc(F)cc3)CC2)N(CCO)c2ccc(F)cc21 [Example 19, 6′-fluoro-N-(4-fluorobenzyl)-1′-(2-hydroxyethyl)-4′-oxo-3′,4′-dihydro-1′H-spiro[piperidine-4,2′-quinoline]-1-carboxamide] | 31 nM | 694 nM
19 | COCCNc1cc(F)ccc1CNC(=O)N1CCC2(CC1)CC(=O)c1cc(F)ccc1N2C [Example 20, 6′-fluoro-N-(4-fluoro-2-((2-methoxyethyl)amino)benzyl)-1′-methyl-4′-oxo-3′,4′-dihydro-1′H-spiro[piperidine-4,2′-quinoline]-1-carboxamide] | 33 nM | > 10000 nM
20 | COCCOc1cc(CNC(=O)N2CCC3(CC2)CC(=O)c2cc(F)ccc2N3C)ccc1F [Example 21, 6′-fluoro-N-(4-fluoro-3-(2-methoxyethoxy)benzyl)-1′-methyl-4′-oxo-3′,4′-dihydro-1′H-spiro[piperidine-4,2′-quinoline]-1-carboxamide] | 34 nM | > 10000 nM
21 | Cc1cc(CNC(=O)N2CCC3(CC2)CC(=O)c2cc(F)ccc2N3)c(C)o1 [Example 110, N-((2,5-dimethylfuran-3-yl)methyl)-6′-fluoro-4′-oxo-3′,4′-dihydro-1′H-spiro[piperidine-4,2′-quinoline]-1-carboxamide] | 700 nM | 
22 | CN1c2ccc(F)cc2C(=O)CC12CCN(C(=O)NCc1ccc(F)c(NCC(C)(C)C(=O)N3CCOCC3)c1)CC2 [Example 113] | 846 nM | 
23 | Cc1ncc(CNC(=O)c2cc(CNC(=O)N3CCC4(CC3)CC(=O)c3cc(F)ccc3N4)ccc2F)o1 [Example 121, 6′-fluoro-N-(4-fluoro-3-(((2-methyloxazol-5-yl)methyl)carbamoyl)benzyl)-4′-oxo-3′,4′-dihydro-1′H-spiro[piperidine-4,2′-quinoline]-1-carboxamide] | 1080 nM | 
24 | O=C(NC/C=C/CO)c1cc(CNC(=O)N2CCC3(CC2)CC(=O)c2cc(F)ccc2N3)ccc1F [Example 122, (E)-6′-fluoro-N-(4-fluoro-3-((4-hydroxybut-2-en-1-yl)carbamoyl)benzyl)-4′-oxo-3′,4′-dihydro-1′H-spiro[piperidine-4,2′-quinoline]-1-carboxamide] | 1110 nM | 
25 | Cc1cc(CNC(=O)N2CCC3(CC2)CC(=O)c2cc(F)ccc2N3)c(C(F)(F)F)o1 [Example 127, 6′-fluoro-N-((5-methyl-2-(trifluoromethyl)furan-3-yl)methyl)-4′-oxo-3′,4′-dihydro-1′H-spiro[piperidine-4,2′-quinoline]-1-carboxamide] | 1430 nM | 
26 | C#CCNC(=O)c1cc(CNC(=O)N2CCC3(CC2)CC(=O)c2cc(F)ccc2N3)ccc1F [Example 128, 6′-fluoro-N-(4-fluoro-3-(prop-2-yn-1-ylcarbamoyl)benzyl)-4′-oxo-3′,4′-dihydro-1′H-spiro[piperidine-4,2′-quinoline]-1-carboxamide] | 1480 nM | 
27 | CN1c2ccc(F)cc2C(=O)CC12CCN(C(=O)NCc1ccc(F)c(NCCC(=O)O)c1)CC2 [Example 148, 3-((2-fluoro-5-((6′-fluoro-1′-methyl-4′-oxo-3′,4′-dihydro-1′H-spiro[piperidine-4,2′-quinoline]-1-carboxamido)methyl)phenyl)amino)propanoic acid] | 4930 nM | 
